For 23 molecules, IC50 results are on record in patent publication US12643881B2, “Bicyclic amine CDK12 inhibitors” (Incyte Corporation, priority 2021, dated 2026).

pIC50: −log10 of the molar value. A value given as a limit tells only on which side of the number the result lay.

As a reminder, the pIC50 is the IC50 on a negative log10 scale, so that one unit is a factor of ten.

The target of the first assay is T1, CDK12 complexed with Cyclin K (Homo sapiens, UniProt Q9NYV4).
T1 construct: GST (N)
T1 sequence (Q9NYV4 whole entry): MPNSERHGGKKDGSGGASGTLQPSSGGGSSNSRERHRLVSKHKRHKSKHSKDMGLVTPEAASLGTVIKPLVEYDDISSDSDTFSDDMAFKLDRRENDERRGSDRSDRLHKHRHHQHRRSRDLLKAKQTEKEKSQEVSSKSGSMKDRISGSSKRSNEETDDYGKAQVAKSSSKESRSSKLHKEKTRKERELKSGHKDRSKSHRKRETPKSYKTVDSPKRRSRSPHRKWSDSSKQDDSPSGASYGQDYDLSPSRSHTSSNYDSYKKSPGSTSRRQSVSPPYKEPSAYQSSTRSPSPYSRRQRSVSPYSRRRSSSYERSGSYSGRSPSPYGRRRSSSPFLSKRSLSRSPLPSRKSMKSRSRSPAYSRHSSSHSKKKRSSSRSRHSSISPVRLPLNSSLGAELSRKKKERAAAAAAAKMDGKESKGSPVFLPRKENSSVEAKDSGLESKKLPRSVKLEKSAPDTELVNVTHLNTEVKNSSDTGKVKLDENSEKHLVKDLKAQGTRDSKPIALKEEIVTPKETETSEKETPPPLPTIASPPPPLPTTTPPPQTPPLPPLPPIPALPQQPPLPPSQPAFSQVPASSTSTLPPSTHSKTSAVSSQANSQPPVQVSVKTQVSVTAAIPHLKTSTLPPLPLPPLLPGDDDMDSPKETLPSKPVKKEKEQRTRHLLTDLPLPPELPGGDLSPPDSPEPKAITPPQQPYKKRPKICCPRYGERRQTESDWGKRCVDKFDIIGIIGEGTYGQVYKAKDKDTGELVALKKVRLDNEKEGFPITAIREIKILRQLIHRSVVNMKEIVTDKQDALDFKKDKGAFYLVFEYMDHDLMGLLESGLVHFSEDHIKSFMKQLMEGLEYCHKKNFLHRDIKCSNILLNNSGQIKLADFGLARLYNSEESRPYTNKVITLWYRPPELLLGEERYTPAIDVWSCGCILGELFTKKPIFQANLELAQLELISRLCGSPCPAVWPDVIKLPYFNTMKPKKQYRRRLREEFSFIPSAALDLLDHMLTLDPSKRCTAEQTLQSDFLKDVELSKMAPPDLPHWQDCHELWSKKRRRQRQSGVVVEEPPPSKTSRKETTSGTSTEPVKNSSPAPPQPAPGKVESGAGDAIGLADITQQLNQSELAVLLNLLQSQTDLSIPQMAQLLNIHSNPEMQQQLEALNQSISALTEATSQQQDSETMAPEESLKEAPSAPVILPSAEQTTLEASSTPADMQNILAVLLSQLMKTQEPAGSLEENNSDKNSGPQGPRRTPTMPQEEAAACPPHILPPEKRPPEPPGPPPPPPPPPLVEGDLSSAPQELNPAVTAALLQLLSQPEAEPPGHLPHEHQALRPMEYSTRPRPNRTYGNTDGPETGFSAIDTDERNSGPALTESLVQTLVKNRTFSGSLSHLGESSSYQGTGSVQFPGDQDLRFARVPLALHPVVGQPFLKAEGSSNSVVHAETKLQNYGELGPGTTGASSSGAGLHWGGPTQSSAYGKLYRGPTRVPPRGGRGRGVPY
T1 sequence (O75909 whole entry partner): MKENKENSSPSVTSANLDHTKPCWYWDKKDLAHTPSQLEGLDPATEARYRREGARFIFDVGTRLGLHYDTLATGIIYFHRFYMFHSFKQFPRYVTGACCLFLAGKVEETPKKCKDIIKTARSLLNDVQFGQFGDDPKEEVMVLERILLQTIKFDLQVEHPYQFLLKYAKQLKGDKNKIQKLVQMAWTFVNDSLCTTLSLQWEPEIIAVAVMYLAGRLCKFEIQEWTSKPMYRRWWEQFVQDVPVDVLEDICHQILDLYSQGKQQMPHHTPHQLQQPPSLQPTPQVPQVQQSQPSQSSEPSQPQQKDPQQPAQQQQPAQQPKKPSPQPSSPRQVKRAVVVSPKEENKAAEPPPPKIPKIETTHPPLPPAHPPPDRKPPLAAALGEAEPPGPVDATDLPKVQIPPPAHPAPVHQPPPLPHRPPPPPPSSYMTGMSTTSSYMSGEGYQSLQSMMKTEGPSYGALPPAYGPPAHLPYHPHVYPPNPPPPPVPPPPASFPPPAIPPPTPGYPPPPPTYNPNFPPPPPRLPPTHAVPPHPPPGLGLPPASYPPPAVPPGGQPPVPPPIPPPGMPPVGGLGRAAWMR
The experiment in a line: CDK Enzymatic Assays (HTRF, LANCE Ultra kinase assay), Example A1. Format: biochemical. Particulars: enzyme pre-incubated with compounds for 60 minutes prior to addition of ATP (1 mM final) and Ulight-peptide; reaction 60-90 minutes at room temperature. Put shortly:
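N-terminal GST-tagged human CDK12 co-expressed with full-length Cyclin K (baculovirus), pre-incubated with compound 60 min, then 1 mM ATP and 50 nM ULight-4E-BP1 peptide added in HEPES pH 7.5 buffer; 60-90 min at room temperature. EDTA/Eu-antibody stop, HTRF 665/620 ratio normalized to controls; IC50 from 3- or 4-parameter fit.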
(In general: TR-FRET usually uses a lanthanide donor and a delayed reading to cut background.)
On to `C=CC(=O)Nc1cc2nc(N3CC[C@@H](F)[C@@H](Nc4ncc(C(F)(F)F)cn4)C3)n(C)c2cc1C` [Example 98, N-(2-((3S,4R)-4-Fluoro-3-((5-(trifluoromethyl)pyrimidin-2-yl)amino)piperidin-1-yl)-1,6-dimethyl-1H-benzo[d]imidazol-5-yl)acrylamide], for which the pIC50 was greater than 7.30.

With `C=CC(=O)Nc1ccc2c(c1)nc(N1CCC[C@@H](Nc3ncc(C#N)c(OC)n3)C1)n2C` [Example 37, (R)—N-(2-(3-((5-Cyano-4-methoxypyrimidin-2-yl)amino)piperidin-1-yl)-1-methyl-1H-benzo[d]imidazol-5-yl)acrylamide], the pIC50 was greater than 7.30.

Turning to `C=CC(=O)Nc1ccc2c(c1)nc([C@H]1CCC[C@@H](Nc3ncc(C(F)(F)F)cn3)C1)n2C` [Example 72, N-(1-Methyl-2-((1S,3R)-3-((5-(trifluoromethyl)pyrimidin-2-yl)amino)cyclohexyl)-1H-benzo[d]imidazol-5-yl)acrylamide], the pIC50 was greater than 7.30.

For `C=CC(=O)Nc1ccc2nc(N3CCC[C@@H](Nc4ncc(C#N)c(OC)n4)C3)sc2c1` [Example 46, (R)—N-(2-(3-((5-Cyano-4-methoxypyrimidin-2-yl)amino)piperidin-1-yl)benzo[d]thiazol-6-yl)acrylamide], the pIC50 is greater than 7.30.

For the molecule `C=C(F)C(=O)Nc1ccc2c(c1)C(=O)N([C@H]1CCC[C@@H](Nc3ncc(C#N)c(OC)n3)C1)C2` [Example 56, N-(2-((1S,3R)-3-((5-Cyano-4-methoxypyrimidin-2-yl)amino)cyclohexyl)-3-oxoisoindolin-5-yl)-2-fluoroacrylamide], the pIC50 was 6.30 to 7.30.

For `COc1nc(N[C@@H]2CCC[C@H](N3Cc4ccc(NC(=O)/C=C/CN(C)C)cc4C3=O)C2)ncc1C#N` [Example 63, (E)-N-(2-((1S,3R)-3-((5-Cyano-4-methoxypyrimidin-2-yl)amino)cyclohexyl)-3-oxoisoindolin-5-yl)-4-(dimethylamino)but-2-enamide], the negative-log IC50 (pIC50) is greater than 7.30.

As for `CC#CC(=O)Nc1ccc2c(c1)C(=O)N([C@H]1CCC[C@@H](Nc3ncc(C#N)c(OC)n3)C1)C2` [Example 60, N-(2-((1S,3R)-3-((5-Cyano-4-methoxypyrimidin-2-yl)amino)cyclohexyl)-3-oxoisoindolin-5-yl)but-2-ynamide], the negative logarithm of the IC50 (pIC50) is 6.30 to 7.30.

For another assay, the target named is T1, CDK12 complexed with Cyclin K. The experiment in a line: Alternative CDK Enzymatic Assays (HTRF, pre-incubation with compounds and 1 mM ATP), Example A2. Particulars: enzyme pre-incubated with compounds and 1 mM ATP for 60 minutes; reaction 120 minutes at 25° C. Format: biochemical. An excerpt: Example A2. Alternative CDK Enzymatic Assays
The following activity of the CDK enzymes in complex with their respective cyclins we assayed: CDK1 complexed with Cyclin B1; CDK2 complexed with Cyclin E1; CDK4 complexed with Cyclin D1; CDK6 complexed with Cyclin D1; CDK6 complexed with Cyclin D3; CDK9 complexed with Cyclin T1; CDK7 complexed with Cyclin H/MAT1; CDK2 complexed with Cyclin A2; CDK5 complexed with p35; CDK12 complexed with Cyclin K; CDK13 complexed with Cyclin K. These in vitro enzyme activity are assayed using homogeneous time-resolved energy transfer (HTRF), which measures phosphorylation of a peptide substrate. The LANCER Ultra kinase assay (PerkinElmer) uses a ULight™-labeled EIF4E-binding protein 1 (THR37/46) peptide (DYSTTPGGTLFSTTPGTRI (SEQ ID NO: 1)) substrate and a Europium-labeled anti-phospho-4E-BP1 antibody (CDK2, CDK1, CDK4, CDK6, CDK9, CDK12, CDK13) or ULight™-labeled Myelin Basic Protein peptide (VTPRTPPP (SEQ ID NO: 2)) substrate and a Europium-labeled anti-phospho-MBP antibody (CDK7). Each CDK enzyme activity assays utilized human CDK co-expressed as N-terminal GST-tagged protein with its full length cyclin partner using a baculovirus expression system.
Enzyme was pre-incubated with compounds and 1 mM ATP for 60 minutes (CDK 1, 2, 4, 6, 9, 7, 12, 13) prior to the addition of ATP and Ulight-peptide (1 mM and 50 nM final, respectively), in assay buffer containing 50 mM HEPES pH 7.5, 1 mM EGTA, 10 mM MgCl2, 2 mM DTT, 0.05 mg/mL BSA, and 0.01% Tween 20. The reaction was then incubated for 120 minutes at 25° C. incubator. The reactions were stopped by the addition of EDTA and Europium labeled antibody, for a final concentration of 15 mM and 0.5-1.5 nM, respectively. HTRF signals were read after 15-120 minutes. A ratio of fluorescence transferred to the labeled substrate (665 nm) relative to fluorescence of the Europium donor (620 nm) represents the extent of phosphorylation. Ratios for treated wells were normalized to DMSO only (100% activity) and no enzyme (0% activity) controls. Normalized data was analyzed using a three or four parameter dose response curve to determine IC50 for each compound and are shown in Table B. Control reference inhibitors were included on each plate.
On to `C=CC(=O)N1C[C@@H]2C[C@H]1CN2c1nccn2c(N3C[C@H](F)C[C@@H](Nc4ncc(C(F)(F)F)cn4)C3)ncc12` [Example 107, 1-((1S,4S)-5-(3-((3R,5R)-3-Fluoro-5-((5-(trifluoromethyl)pyrimidin-2-yl)amino)piperidin-1-yl)imidazo[1,5-a]pyrazin-8-yl)-2,5-diazabicyclo[2.2.1]heptan-2-yl)prop-2-en-1-one], for which the pIC50 is 6.30 to 7.30.

On to `C=CC(=O)Nc1cc2nc(N3C[C@H](F)C[C@@H](Nc4ncc(C#N)c(C)n4)C3)n(C)c2cc1C` [Example 164, N-(2-((3R,5R)-3-((5-Cyano-4-methylpyrimidin-2-yl)amino)-5-fluoropiperidin-1-yl)-1,6-dimethyl-1H-benzo[d]imidazol-5-yl)acrylamide], for which the pIC50 was 6.30 to 7.30.

As for `C=CC(=O)N1CCCCC1c1nccn2c(N3CCC[C@@H](Nc4ncc(C(F)(F)F)cn4)C3)ncc12` (stereo partly drawn) [Example 108, 1-(2-(3-((R)-3-((5-(Trifluoromethyl)pyrimidin-2-yl)amino)piperidin-1-yl)imidazo[1,5-a]pyrazin-8-yl)piperidin-1-yl)prop-2-en-1-one], the pIC50 was 6.30 to 7.30.

`Cc1cc2c(cc1NC(=O)/C=C/C(C)(C)O)nc(N1C[C@H](F)C[C@@H](Nc3ncc(C(F)(F)F)cn3)C1)n2C` [Example 112, (E)-N-(2-((3R,5R)-3-Fluoro-5-((5-(trifluoromethyl)pyrimidin-2-yl)amino)piperidin-1-yl)-1,6-dimethyl-1H-benzo[d]imidazol-5-yl)-4-hydroxy-4-methylpent-2-enamide]: the negative-log IC50 (pIC50) was less than 6.30.

As for `C=CC(=O)Nc1cc2nc(N3CCC[C@@H](Nc4ncc(C(F)(F)F)cn4)C3)n(C)c2cc1CC` [Example 153, (R)—N-(6-Ethyl-1-methyl-2-(3-((5-(trifluoromethyl)pyrimidin-2-yl)amino)piperidin-1-yl)-1H-benzo[d]imidazol-5-yl)acrylamide], the pIC50 was greater than 7.30.

On to `C=CC(=O)Nc1ccc2c(c1)nc(N1CC[C@@H](F)[C@@H](Nc3ncc(C#N)cn3)C1)n2C` [Example 125, N-(2-((3S,4R)-3-((5-Cyanopyrimidin-2-yl)amino)-4-fluoropiperidin-1-yl)-1-methyl-1H-benzo[d]imidazol-5-yl)acrylamide], for which the pIC50 is greater than 7.30.

Consider `C=CC(=O)Nc1cc2nc(N3C[C@H](F)C[C@@H](Nc4ncc(C(F)(F)F)cn4)C3)n(C)c2cc1F` [Example 132, N-(6-Fluoro-2-((3R,5R)-3-fluoro-5-((5-(trifluoromethyl)pyrimidin-2-yl)amino)piperidin-1-yl)-1-methyl-1H-benzo[d]imidazol-5-yl)acrylamide], for which the pIC50 is greater than 7.30.

In the case of `C=CC(=O)Nc1c(C)cc2c(nc(N3C[C@H](F)C[C@@H](Nc4ncc(C#N)cn4)C3)n2C)c1Br` [Example 145, N-(4-Bromo-2-((3R,5R)-3-((5-cyanopyrimidin-2-yl)amino)-5-fluoropiperidin-1-yl)-1,6-dimethyl-1H-benzo[d]imidazol-5-yl)acrylamide], the pIC50 was 6.30 to 7.30.

“N-(2-((3R,5R)-3-Hydroxy-5-((5-(trifluoromethyl)pyrimidin-2-yl)amino)piperi-dine-1-yl)-1,6-dimethyl-1H-benzo[d]imidazol-5-yl)acrylamide [Example 94]”: the negative-log IC50 (pIC50) was 6.30 to 7.30.

`C=CC(=O)N1CCN(c2ccc3c(c2)nc(N2CCC[C@@H](Nc4ncc(C(F)(F)F)cn4)C2)n3C)CC1` [Example 128, (R)-1-(4-(1-Methyl-2-(3-((5-(trifluoromethyl)pyrimidin-2-yl)amino)piperidin-1-yl)-1H-benzo[d]imidazol-5-yl)piperazin-1-yl)prop-2-en-1-one]: the pIC50 is 6.30 to 7.30.

With `C=CC(=O)Nc1ccc2c(c1)nc(N1CCC[C@@H](Nc3ncc(C(F)(F)F)s3)C1)n2C` [Example 130, (R)—N-(1-Methyl-2-(3-((5-(trifluoromethyl)thiazol-2-yl)amino)piperidin-1-yl)-1H-benzo[d]imidazol-5-yl)acrylamide], the negative-log IC50 (pIC50) is greater than 7.30.

As to `C=CC(=O)Nc1cc2nc(N3CCC[C@@H](Nc4ncc(C(F)(F)F)cn4)C3)n(C)c2cc1C` [Example 102, (R)—N-(1,6-Dimethyl-2-(3-((5-(trifluoromethyl)pyrimidin-2-yl)amino)piperidin-1-yl)-1H-benzo[d]imidazol-5-yl)acrylamide], the negative-log IC50 (pIC50) was greater than 7.30.

As to `C=CC(=O)Nc1cc2nc(N3C[C@H](F)C[C@@H](Nc4ncc(C(F)F)cn4)C3)n(C)c2cc1C` [Example 160, N-(2-((3R,5R)-3-((5-(Difluoromethyl)pyrimidin-2-yl)amino)-5-fluoropiperidin-1-yl)-1,6-dimethyl-1H-benzo[d]imidazol-5-yl)acrylamide], the negative-log IC50 (pIC50) is 6.30 to 7.30.

`C=C(F)C(=O)Nc1cc2nc(N3C[C@H](F)C[C@@H](Nc4ncc(C(F)(F)F)cn4)C3)n(C)c2cc1C` [Example 117, 2-Fluoro-N-(2-((3R,5R)-3-fluoro-5-((5-(trifluoromethyl)pyrimidin-2-yl)amino)piperidin-1-yl)-1,6-dimethyl-1H-benzo[d]imidazol-5-yl)acrylamide]: the pIC50 was 6.30 to 7.30.

Consider `C=CC(=O)Nc1cc2nc(N3C[C@H](F)C[C@@H](Nc4ncc(C#N)c(NC)n4)C3)n(C)c2cc1C` [Example 158, N-(2-((3R,5R)-3-((5-Cyano-4-(methylamino)pyrimidin-2-yl)amino)-5-fluoropiperidin-1-yl)-1,6-dimethyl-1H-benzo[d]imidazol-5-yl)acrylamide], for which the negative logarithm of the IC50 (pIC50) was greater than 7.30.

Regarding `Cc1cc2c(cc1NC(=O)/C=C\CN(C)C)nc(N1C[C@H](F)C[C@@H](Nc3ncc(C(F)(F)F)cn3)C1)n2C` [Example 119, (Z)-4-(Dimethylamino)-N-(2-((3R,5R)-3-fluoro-5-((5-(trifluoromethyl)pyrimidin-2-yl)amino)piperidin-1-yl)-1,6-dimethyl-1H-benzo[d]imidazol-5-yl)but-2-enamide], the pIC50 is less than 6.30.
